Ki data for 30 molecules are collected here from US20230174484A1, “ANTAGONISTS OF GPR39 PROTEIN” (Oregon Health & Science University, priority 2020, published 2023).

Molecules are shown by their SMILES. pKi: −log10 of the molar value. Bounds are passed on as bounds.

This assay concerns the target T1, human GPR39 receptor (Homo sapiens, UniProt O43194).
T1 construct: PC3 Cells, Expressing the Endogenous Human GPR39 Receptor; endogenous in cells; host or cells: PC3 (human prostate adenocarcinoma) cells
T1 sequence (O43194 1-453): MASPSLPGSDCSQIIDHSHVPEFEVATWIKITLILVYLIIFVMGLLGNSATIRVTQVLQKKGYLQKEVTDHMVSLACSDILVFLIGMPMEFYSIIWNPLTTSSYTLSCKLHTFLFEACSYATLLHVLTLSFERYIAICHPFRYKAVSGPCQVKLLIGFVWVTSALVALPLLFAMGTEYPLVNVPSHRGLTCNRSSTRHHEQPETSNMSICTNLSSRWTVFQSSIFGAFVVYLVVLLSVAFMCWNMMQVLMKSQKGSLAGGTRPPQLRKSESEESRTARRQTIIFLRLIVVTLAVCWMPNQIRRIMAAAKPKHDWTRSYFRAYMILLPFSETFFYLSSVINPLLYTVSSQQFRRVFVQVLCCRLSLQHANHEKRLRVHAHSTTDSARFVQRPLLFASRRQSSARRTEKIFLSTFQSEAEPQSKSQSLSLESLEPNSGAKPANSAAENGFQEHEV
The experiment in a line: Measurement of intracellular calcium response in PC3 cells (FLIPR), antagonism of the C3 agonist response. It is filed as cell-based. The following applies: functional pKi (modified Cheng-Prusoff), inhibition of the C3 (TC-G 1008) response at EC90, 30 μM ZnCl2, read-out: fpKi activity. In a few lines: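 Potency was reported as fpKi, converted by modified Cheng-Prusoff from four-parameter IC50 fits against an EC90 C3 agonist challenge. Calcium-6 FLIPR readings used PC3 cells naturally expressing human GPR39, in pH 7.4 HEPES buffer containing 30 μM final ZnCl2. Score bands: +/± <5.2, + 5.2–5.9, ++ 6.0–6.5, +++ 6.6–7.2, ++++ ≥7.3.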
(A change in cytosolic calcium serves as a functional read-out for many receptors and channels.)
Consider `CCCN1CCN(C(=O)c2ccc(NC(=O)C3CC3)cc2N2CCC(c3ccccc3)C2)CC1` (stereo not drawn) [Example 5, N-(3-(3-phenylpyrrolidin-1-yl)-4-(4-propylpiperazine-1-carbonyl)phenyl) cyclopropanecarboxamide], for which the pKi was 6.00 to 6.50. To `CN1CCN(C(=O)c2ccc(NC(=O)C3CC3)cc2N2CCCCCC2)C(C(F)(F)F)C1` (stereo not drawn) [Example 75, N-[3-(azepan-1-yl)-4-[4-methyl-2-(trifluoromethyl)piperazine-1-carbonyl]phenyl]Cyclopropanecarboxamide] belongs 6.00 to 6.50. In the case of `O=C(Nc1ccc(C(=O)N2CCN(Cc3cc[nH]n3)CC2)c(N2CCCCCC2)c1)C1CC1` [Example 23] it was 6.00 to 6.50; in that of `CN1CCN(C(=O)c2ccc(-c3nnc(C4CC4)[nH]3)cc2N2CCCC2)C(c2ccccc2)C1` (racemic) [Example 151c, [4-(5-cyclopropyl-4H-1,2,4-triazol-3-yl)-2-pyrrolidin-1-ylphenyl]-(4-methyl-2phenylpiperazin-1-yl)methanone], 6.60 to 7.20; in that of `CN1CCN(C(=O)c2ccc(NC(=O)C3CC3)cc2N2CCCC2)C(c2cccc(F)c2)C1` (single isomer, unassigned) [Example 88b, N-[4-[2-(3-fluorophenyl)-4-methylpiperazine-1-carbonyl]-3-pyrrolidin-1-ylphenyl]cyclopropanecarboxamide], 5.20 to 5.90. As for `CN1CCN(C(=O)c2ccc(NC(=O)C3CC3)cc2N2CCCC2)C(c2cccs2)C1` (single isomer, unassigned) [Example 86a, N-[4-(4-methyl-2-thiophen-2-ylpiperazine-1-carbonyl)-3-pyrrolidin-1-ylphenyl]cyclopropanecarboxamide], the pKi is 5.20 to 5.90. To `Cc1nnc(-c2ccc(C(=O)N3CCN(C)CC3c3ccccc3)c(N3CCCC3)c2)[nH]1` (single isomer, unassigned) [Example 150a, (2R or 2S) (4-methyl-2-phenylpiperazin-1-yl)-[4-(5-methyl-4H-1,2,4-triazol-3-yl)-2-pyrrolidin-1-ylphenyl]methanone] belongs 6.60 to 7.20; to `O=C(Nc1ccc(C(=O)N2CCS(=O)(=O)CC2)c(N2CC3CCC2C3)c1)C1CC1` (stereo not drawn) [Example 187, N-[3-(3-azabicyclo[2.2.1]heptan-3-yl)-4-(1,1-dioxo-1,4-thiazinane-4-carbonyl)phenyl]cycloprooanecarboxamide], 6.00 to 6.50. In the case of `CN1CCn2c(cnc2-c2ccc(NC(=O)C3CC3)cc2N2CCCCCC2)C1` [Example 102, N-[3-(azepan-1-yl)-4-{7-methyl-5H,6H,7H,8H-imidazo[1,5-a]pyrazin-3-yl}phenyl]cyclopropanecarboxamide] it was 6.60 to 7.20.

In the case of `CC1CN(C)CCN1C(=O)c1ccc(NC(=O)C2CC2)cc1N1CCCCCC1` (stereo not drawn) [Example 37, N-[3-(azepan-1-yl)-4-(2,4-dimethylpiperazine-1-carbonyl)phenyl]cyclopropanecarboxamide], the pKi was 6.00 to 6.50. On to `CN1CCN(C(=O)c2ccc(NC(=O)C3CC3)cc2N2CCCC2)C(c2ccncc2Cl)C1` (racemic) [Example 174, N-[4-[2-(3-chloropyridin-4-yl)-4-methylpiperazine-1-carbonyl]-3-pyrrolidin-1-ylphenyl]cyclopropanecarboxamide], for which the pKi was 6.60 to 7.20.

Turning to `CC(C)C1CCN(c2nc(NC(=O)C3CC3)ccc2C(=O)N2CCS(=O)(=O)CC2)C1` (racemic) [Example 142, N-[5-(1,1-dioxo-1,4-thiazinane-4-carbonyl)-6-(3-propan-2-ylpyrrolidin-1-yl)pyridin-2-yl]cyclopropanecarboxamide], the pKi was not below 7.30.

In the case of `CCCN1CCN(C(=O)c2ccc(NC(=O)C3CC3)cc2-c2ccccc2)CC1` [Example 10, N-(6-(4-propylpiperazine-1-carbonyl)-[1,1′-biphenyl]-3-yl)cyclopropanecarboxamide], the pKi is 5.20 to 5.90. In the case of `CC1CN(c2cc(NC(=O)C3CC3)ccc2C(=O)N2CCS(=O)(=O)CC2)CC(C)O1` (racemic) [Example 188, N-[3-[(anti)-2,6-dimethylmorpholin-4-yl]-4-(1,1-dioxo-1,4-thiazinane-4-carbonyl)phenyl]cyclopropanecarboxamide] it was 5.20 to 5.90; in that of `CCCN1CCN(C(=O)c2ccc(NC(=O)C3CC3)cc2N2CCCCCC2)CC1` [Example 36, N-(3-(azepan-1-yl)-4-(4-propylpiperazine-1-carbonyl)phenyl)cyclopropanecarboxamide], 6.60 to 7.20. In the case of `CN1CCN(C(=O)c2ccc(NC(=O)C3CC3)cc2N2CCCCC2)C(c2ccccc2)C1` (single isomer, unassigned) [Example 201a, N-[4-(4-methyl-(2R or 2S)-phenylpiperazine-1-carbonyl)-3-piperidin-1-ylphenyl]cyclopropanecarboxamide] it was 6.60 to 7.20. In the case of `O=C(Nc1ccc(C(=O)N2CCS(=O)(=O)CC2)c(-n2ccc(C3CC3)n2)c1)C1CC1` [Example 180, N-[3-(3-cyclopropylpyrazol-1-yl)-4-(1,1-dioxo-1,4-thiazinane-4-carbonyl)phenyl]cyclopropanecarboxamide] it was not below 7.30; in that of `O=C(Nc1ccc(C(=O)N2CCCCC2c2nnnn2Cc2ccccc2)c(N2CCCCCC2)c1)C1CC1` (stereo not drawn) [Example 54, N-[3-(azepan-1-yl)-4-[2-(1-benzyltetrazol-5-yl)piperidine-1-carbonyl]phenyl]cyclopropanecarboxamide], 6.60 to 7.20. As to `O=C(Nc1ccc(C(=O)N2CCS(=O)(=O)CC2)c(N2CCC3(CCC3)C2)c1)C1CC1` [Example 65, N-[3-(6-azaspiro[3.4]octan-6-yl)-4-(1,1-dioxo-1,4-thiazinane-4-carbonyl)phenyl]cyclopropanecarboxamide], the pKi was not below 7.30. `Cc1ccn(-c2cc(NC(=O)C3CC3)ccc2C(=O)N2CCN(C)CC2c2ccccc2)n1` (single isomer, unassigned) [Example 155a, (2R or 2S) N-[4-(4-methyl-2-phenylpiperazine-1-carbonyl)-3-(3-methylpyrazol-1-yl)phenyl] cyclopropanecarboxamide]: the pKi is 6.00 to 6.50. In the case of `CN1CCN(C(=O)c2ccc(NC(=O)C3CC3)nc2N2CCC(F)(F)CC2)C(c2ccccc2)C1` (racemic) [Example 146, N-[6-(4,4-difluoropiperidin-1-yl)-5-(4-methyl-2-phenylpiperazine-1-carbonyl)pyridin-2-yl]cyclopropanecarboxamide] it was 6.60 to 7.20; in that of `Cc1nnc(-c2ccc(C(=O)N3CCN(C)CC3c3ccccc3)c(N3CCC(C(F)(F)F)C3)c2)[nH]1` (single isomer, unassigned) [Example 177a, (2S, 3R) or (2R, 3S) or (2R, 3R) or (2S, 3S) (4-methyl-2-phenylpiperazin-1-yl)-[4-(5-methyl-4H-1,2,4-triazol-3-yl)-2-[3-(trifluoromethyl)pyrrolidin-1-yl]phenyl]methanone], 6.60 to 7.20; in that of `CN1CCN(C(=O)c2ccc(NC(=O)C3CC3)cc2N2CCCC2)C(c2ccc(F)cc2)C1` (racemic) [Example 89, N-[4-[2-(4-fluorophenyl)-4-methylpiperazine-1-carbonyl]-3-pyrrolidin-1ylphenyl]cyclopropanecarboxamide], 6.00 to 6.50.

Take `CCCN1CCN(C(=O)c2ccc(NC(=O)CC)cc2N2CCCCCC2)CC1` [Example 94, N-(3-(azepan-1-yl)-4-(4-propylpiperazine-1-carbonyl)phenyl)propionamide]: the pKi is 6.00 to 6.50. As to `CN1CCN(C(=O)c2ccc(NC(=O)C3CC3)cc2N2CC3(CCOC3)C2)C(c2ccccc2)C1` (stereo not drawn) [Example 205, N-[4-(4-methyl-2-phenylpiperazine-1-carbonyl)-3-(6-oxa-2-azaspiro[3.4]octan-2-yl)phenyl]cyclopropanecarboxamide], the pKi was 6.60 to 7.20. In the case of `CN1CCN(C(=O)c2ccc(NC(=O)C3CC3)cc2-n2cc(C(F)(F)F)cn2)C(c2ccccc2)C1` (stereo not drawn) [Example 207, N-[4-(4-methyl-2-phenylpiperazine-1-carbonyl)-3-[4-(trifluoromethyl)pyrazol-1-yl]phenyl]cyclopropanecarboxamide] it was 6.00 to 6.50; in that of `CCCN1CCN(C(=O)c2ccc(NC(=O)C3CC3(F)F)cc2N2CCCCCC2)CC1` (stereo not drawn) [Example 92], 6.00 to 6.50; in that of `Cc1ccn(-c2cc(NC(=O)C3CC3)ccc2C(=O)N2CCC(C(F)(F)F)CC2)n1` [Example 156], 6.60 to 7.20. To `O=C(Nc1ccc(C(=O)N2CCN(Cc3ccc(F)cc3)CC2)c(N2CCCCCC2)c1)C1CC1` [Example 29, N-(3-(azepan-1-yl)-4-(4-(4-fluorobenzyl)piperazine-1-carbonyl)phenyl) Cyclopropanecarboxamide] belongs 6.60 to 7.20; to `CN1CCN(C(=O)c2ccc(NC(=O)C3CC3)cc2N2CCC(F)(F)C2)C(c2ccccc2)C1` (single isomer, unassigned) [Example 202b, N-[3-(3,3-difluoropyrrolidin-1-yl)-4-(2R or 2S)-4-methyl-2-phenylpiperazine-1-carbonyl)phenyl]cyclopropanecarboxamide], not below 7.30.
